{
  "source": "a melting point compilation (Tetko et al.; mined from patent text by program, amines drawn as free bases though some values may be those of a salt)",
  "data": [
    {"units": {"melting point": "°C"}, "values": [
      {"compound": "COc1cccc(NC(C)=O)c1C(=O)NC1CCN(C(C)CC(C(=O)N(C)C)(c2ccccc2)c2ccccc2)CC1O", "note": "(stereo unspecified)", "melting point": 146},
      {"compound": "O=C(c1ccccc1)c1cccc2c1SCC2C(=O)O", "note": "(stereo unspecified)", "melting point": "153 to 156"},
      {"compound": "COc1ccc(C2CCOCC2)c2sc(NC(=O)N(C)[C@H]3CC[C@H](O)CC3)nc12", "melting point": 160},
      {"compound": "O=C(O)C(Cl)=C(Cl)C(O)=NCCCc1ccc(Cl)cc1", "melting point": "72 to 73"},
      {"compound": "CCCC(C)(Br)C(=O)Nc1ccc(C(C)C)cc1", "note": "(stereo unspecified)", "melting point": "87.2 to 88.2"},
      {"compound": "COc1ccc(CN2C=CC=C3C2=Nc2cc(C(F)(F)F)ccc2S(=O)(=O)N3C)cc1", "melting point": "142 to 143"},
      {"compound": "OCCC1(S)C2CC3CC(C2)CC1C3", "note": "(stereo unspecified)", "melting point": "68 to 70"},
      {"compound": "COc1ccc2c(c1)c(CN(O)C(C)=O)c(C)n2C(=O)c1ccc(Cl)cc1", "melting point": "160 to 161"},
      {"compound": "COC(=O)c1ccc(C(C)O)cc1", "note": "(single isomer, unassigned; (+))", "melting point": "52 to 53"},
      {"compound": "O=C(O)c1cnc2cc([N+](=O)[O-])ccc2n1", "melting point": "208 to 210"},
      {"compound": "CC(=O)Nn1cc(C)n(C)c1=O", "melting point": "199 to 201"},
      {"compound": "CCCCCCCCCC(C)NC(=O)C=C(C)c1cccc([N+](=O)[O-])c1", "note": "(stereo unspecified)", "melting point": "72.5 to 74"},
      {"compound": "COc1cc2c(cc1C(C)=O)CC1(CCCCN1C(=O)C(F)(F)F)CC2", "note": "(stereo unspecified)", "melting point": "156 to 157"},
      {"compound": "COc1cc(C(=O)NS(=O)(=O)c2ccccc2Cl)ccc1Cc1cn(C)c2ccc(CC(C)NC(=O)N(C)C)cc12", "note": "(stereo unspecified)", "melting point": "131 to 136"},
      {"compound": "Cc1ccnc(C(O)c2ccc(N)cc2C(F)(F)F)c1", "note": "(stereo unspecified)", "melting point": "120 to 123"},
      {"compound": "CC1Nc2cnccc2N(C)n2cccc21", "note": "(stereo unspecified)", "melting point": "157 to 160"},
      {"compound": "C=CC(=O)OCCCCCCCCOc1ccc(C(=O)Oc2ccc(C=O)cc2)cc1", "melting point": 73},
      {"compound": "C#CCOc1ccc(C)cc1S(N)(=O)=O", "melting point": "169 to 170"},
      {"compound": "O=C(Cc1ccccc1Nc1c(Cl)cccc1Cl)OCCc1ccccn1", "melting point": "67 to 68"},
      {"compound": "COc1ccc(NS(=O)(=O)c2ccc(N3CCNC3=O)cc2)cc1", "melting point": "210 to 211"},
      {"compound": "O=S(=O)(NCCCl)c1ccccc1", "melting point": "58 to 62"},
      {"compound": "CCCc1[nH]nc2c1C(=O)c1c(NC(N)=O)cccc1-2", "melting point": "187 to 189"},
      {"compound": "Cc1csc(C(=O)NN)c1N", "melting point": "141 to 143"},
      {"compound": "Cc1cc(-c2ccc(S(C)(=O)=O)cc2)n(-c2ccc(-c3ccco3)cc2)c1", "melting point": "133 to 135"},
      {"compound": "CS(=O)(=O)c1ccc(C(=O)C(=CO)C(=O)C2CC2)c(Cl)c1-c1nccs1", "melting point": 176},
      {"compound": "Cc1ncsc1NC(=O)Nc1ccc(-n2nc(C3CC3)cc2C(F)(F)F)nc1", "melting point": "244 to 247"},
      {"compound": "COc1ccc(C2=NN(C3CCN(C(=O)CCCOc4ccc5[nH]c(=O)ccc5c4)CC3)C(=O)[C@@H]3CC=CC[C@H]23)cc1OC", "melting point": "146 to 149"},
      {"compound": "COc1ccc2cc(C#N)ccc2c1Br", "melting point": "177 to 178"},
      {"compound": "CC(C)=CCN(CCC12CC3CC(CC(C3)C1)C2)C(=O)NCCCc1ccncc1", "melting point": "93 to 96"},
      {"compound": "COc1cc(O[C@@H](C)C(=O)O)c(Cl)cc1Cl", "melting point": "114 to 115"},
      {"compound": "Cc1nccc(NC(=O)C(CC2CCCC2)c2ccc(S(C)(=O)=O)c(C#N)c2)n1", "note": "(stereo unspecified)", "melting point": "89 to 94"},
      {"compound": "CCOC(=O)c1c(C)[nH]c(CC)c1C", "melting point": "108 to 109"},
      {"compound": "CN(C)Cc1ccc(NC(=O)Nc2ccc(Oc3cc(Cl)ncn3)cc2)cc1C(F)(F)F", "melting point": "98 to 105"},
      {"compound": "COC(=O)C1=C(C)NC(c2ccccc2)=C(C(=O)O)C1c1ccc([N+](=O)[O-])cc1", "note": "(stereo unspecified)", "melting point": "190 to 191"},
      {"compound": "O=CNC(CC(=O)O)c1ccccc1", "note": "(stereo unspecified)", "melting point": "135 to 136"},
      {"compound": "COc1ccc(CN2CCN(c3nc(C)c(C(N)=O)s3)C2=O)cc1F", "melting point": "182 to 184"},
      {"compound": "COC(=O)C1CCC2C3CCC4CC(O)C=CC4(C)C3C(=O)CC12C", "note": "(stereo unspecified)", "melting point": "172 to 175"},
      {"compound": "O=C(c1ccccc1I)N1CCOCC1", "melting point": "86 to 87"},
      {"compound": "COc1ccc(Br)c(C(=O)NNS(=O)(=O)c2ccccc2)c1", "melting point": "150 to 152"},
      {"compound": "O=C1NC(=S)SC1=Cc1ccc(Oc2ccccc2)cc1", "melting point": "195 to 200"},
      {"compound": "Cc1cc(C)c2ncc(NC(=O)C3(C)CCc4c(C)c(O)c(C)c(C)c4O3)c(-c3ccccc3Cl)c2c1", "note": "(stereo unspecified)", "melting point": "222 to 224"},
      {"compound": "CC(C)(C)c1ccnc(Oc2ccc(CCNc3ncnc4nccnc34)cc2)c1", "melting point": "156 to 157"},
      {"compound": "Cc1cc(C)c2nc(NCC3COC(C)(C)O3)n(Cc3nc(C)ccc3O)c2c1", "note": "(stereo unspecified)", "melting point": 225},
      {"compound": "C[C@@H]1O[C@](C#CC2CC2)(C(F)(F)F)c2cc(Cl)ccc2NC1=O", "melting point": "145 to 146"},
      {"compound": "CNCCc1ccc2[nH]c(C)c(C(=O)OCc3ccccc3)c2c1", "melting point": "65 to 68"},
      {"compound": "CCCc1c(OCCCCCCc2ccc(O)c(O)c2Cl)ccc(C(=O)O)c1O", "melting point": "145 to 146"},
      {"compound": "COc1ccc(N2CCN(c3c(C)c(C)c4c(c3C)C(c3cccnc3)C(C)(C)O4)CC2)cc1", "note": "(stereo unspecified)", "melting point": "159 to 161"},
      {"compound": "CCOC(=O)c1cc(C#N)c(C)nc1Cl", "melting point": "43 to 45"},
      {"compound": "O=C1C=C(c2c[nH]c3ccccc23)C(=O)O1", "melting point": "210 to 214"},
      {"compound": "CCCc1cc(C)nc(-c2cccc(Oc3ccccc3Cl)n2)n1", "melting point": 73.7},
      {"compound": "c1ccc2c(CCCc3nccc4ccccc34)nccc2c1", "melting point": "96 to 97"},
      {"compound": "CC(C)(C)c1cc(-c2nn(Cc3cccs3)c3ncccc23)cc(C(C)(C)C)c1O", "melting point": "138 to 141"},
      {"compound": "COc1ccc(CCNCC(O)c2ccc(C)cc2)cc1OC", "note": "(stereo unspecified)", "melting point": "99 to 100"},
      {"compound": "O=C(Nc1cccc(-c2ccnc3c(C(=O)c4cccs4)cnn23)c1)c1ccccc1F", "melting point": "190 to 191"},
      {"compound": "O=C1Nc2ccc(I)cc2C1=NNC(=O)c1ccc(O[C@@H](Cc2ccccc2)C(=O)OCc2ccccc2)cc1", "melting point": 194},
      {"compound": "Cc1noc(NS(=O)(=O)c2ccccc2-c2ccc(-c3ncco3)cc2O)c1C", "melting point": "111 to 115"},
      {"compound": "Fc1ccc(NN=Cc2cccs2)cc1", "melting point": "138 to 140"},
      {"compound": "Cc1oc(-c2ccc(C(F)(F)F)cc2)nc1-c1ccc2c(Br)c(OCC(=O)O)ccc2c1", "melting point": "212 to 214"},
      {"compound": "CCN(CC)C(=O)CCC(=O)Nc1ccc(C(=O)N2CCCCc3ccccc32)cc1", "melting point": "165 to 167"},
      {"compound": "O=C(O)c1cc2cccnc2nc1C(=O)O", "melting point": "199 to 202"},
      {"compound": "CCC(CC)OCc1c(-c2ccc(OC(F)F)c(OC3CC3)c2)[nH]c2cn[nH]c(=O)c12", "melting point": "133 to 162"},
      {"compound": "COc1ccc2cc([C@H](C)C(=O)OCCN(C)C(=O)c3ccc(CO[N+](=O)[O-])cc3)ccc2c1", "melting point": "108 to 115"},
      {"compound": "CC(C)(/C=C/I)C(=O)Nc1ccc(Cl)cc1", "melting point": "145 to 146"},
      {"compound": "COC(=O)C1C(C)=NC(N2CCCCC2)=C(C(=O)OC(C)C)C1c1cccc([N+](=O)[O-])c1", "note": "(stereo unspecified)", "melting point": 112},
      {"compound": "Cc1cscc1NC(=S)NC1CCCCC1N", "note": "(stereo unspecified)", "melting point": "205 to 210"},
      {"compound": "O=C(O)c1cc(N2CCCCC2)ccc1[N+](=O)[O-]", "melting point": "130 to 140"},
      {"compound": "CC(=O)Oc1ccc(Oc2cccc(C(=O)O)c2)cc1", "melting point": "141 to 143"},
      {"compound": "CNC(=O)[C@H]1CN(c2cc(F)c3c(c2)CCC(=O)N3C)C(=O)O1", "melting point": "264 to 265"},
      {"compound": "O=C(C=Cc1ccc(O)cc1)c1c(O)cccc1O", "melting point": "190 to 192"},
      {"compound": "C[C@H]1CN(c2c(F)c(N)c3c(=O)c(C(=O)O)cn(C4CC4)c3c2F)C[C@H]1CN", "note": "(relative stereo)", "melting point": "221 to 223"},
      {"compound": "NS(=O)(=O)c1cccc(-c2noc(-c3cnc4ccc(-c5ccc(C(F)(F)F)cc5)cn34)n2)c1", "melting point": 288}
    ]}
  ]
}
